Tests used:
Botrytis cinerea = assay: Botrytis test (bean)/protective; format: in vivo; details: bean plants, protective spray, application rate 500 g/ha, evaluated 2 days after inoculation
Experimental: Botrytis Test (Bean)/Protective
Solvents: 24.5 parts by weight of acetone
• 24.5 parts by weight of dimethylacetamide Emulsifier: 1.0 part by weight of alkylaryl polyglycol ether
To produce a suitable preparation of active compound, 1 part by weight of active compound is mixed with the stated amount of solvents and emulsifier, and the concentrate is diluted with water to the desired concentration.
To test for protective activity, young plants are sprayed with the preparation of active compound at the stated application rate. After the spray coating has dried on, 2 small pieces of agar colonized by Botrytis cinerea are placed onto each leaf. The inoculated plants are placed in a dark chamber at about 20° C. and 100% relative atmospheric humidity.
The size of the infected areas on the leaves is evaluated 2 days after the inoculation. 0% means an efficacy which corresponds to that of the control, whereas an efficacy of 100% means that no infection is observed.

logP by HPLC = format: physicochemical

chromatographic logP (logP by HPLC) | Compound | efficacy (Botrytis cinerea)
5.08 | CC(C)C(C)Nc1c(-c2ccc(F)cc2Cl)c(Cl)nc2c(C(=O)C(F)(F)F)cnn12 (stereo not shown) [Example 2] | –
4.92 | CC(Nc1c(-c2ccc(F)cc2Cl)c(Cl)nc2c(C#N)cnn12)C(C)(C)C (stereo not shown) [Example 4] | –

Compound | chromatographic logP (logP by HPLC) | efficacy (Botrytis cinerea)
CC1CCN(c2c(-c3ccc(F)cc3Cl)c(Cl)nc3c(C(=O)C(F)(F)F)cnn23)CC1 [Example 1, 3-trifluoroacetyl-5-chloro-6-(2-chloro-4-fluorophenyl)-7-(4-methylpiperidino)-pyrazolo[1,5-a]pyrimidine] | 5.44 | more than 90%

Source: patent US20070259893A1, “Pyrazolopyrimidines” (BAYER CROPSCIENCE AKTIENGESELLSCHAFT, priority 2003, published 2007)
